{"source": "patent US20260275299A1", "about": "“Bioprinted Three-Dimensional Tumor Model” (ASOCIACIÓN CENTRO DE INVESTIGACIÓN EN BIOMATERIALES - CIC …, priority 2023, published 2026)", "tested_on": "MCF-7 tumor models", "assay": "Live/dead staining of drug-treated 3D tumor models", "type": "cell-based, human", "conditions": "200 μM, compared to negative and positive controls", "protocol": "To assess cell viability in both the core tumor model and the 3D breast tumor model with the stromal compartment, calcein (targets live cells in green) and propidium iodide (targets dead cells in red) were added to the cell culture medium of the 3D constructs at a 1:100 concentration.", "data": [{"smiles": "CC/C(=C(\\c1ccccc1)c1ccc(OCCN(C)C)cc1)c1ccccc1", "note": "[Tamoxifen]", "values": [{"measurement": "live/dead staining", "result": "Dead cells are observed in the outer regions of the models"}]}]}
